Converted amounts (≈) assume the structure as drawn.
Experiments:
[1] = test system: Staphylococcus aureus 209P; assay: MIC by plate method, standard strains; format: cell-based; details: Heart infusion agar pH 7.4, inoculum 10^4 cells per plate (10^6 cells/ml.), unit assumed
Description: (§1) The minimum inhibitory concentration (MIC) was determined by the plate method disclosed in "Chemotherapy" (Japan), Vol. 16, (1968), pages 98 - 99. The culture medium used was a Heart infusion agar (pH 7.4). The number of the cells per plate used in the inoculum was 10^4 (10^6 cells/ml.).

[2] = test system: Pseudomonas aeruginosa I.F.O.; assay: MIC by plate method, standard strains; format: cell-based; details: Heart infusion agar pH 7.4, inoculum 10^4 cells per plate (10^6 cells/ml.), unit assumed
Description: as §1

[3] = test system: Klebsiella pneumoniae; assay: MIC by plate method, standard strains; format: cell-based; details: Heart infusion agar pH 7.4, inoculum 10^4 cells per plate (10^6 cells/ml.), unit assumed
Description: as §1

[4] = test system: Proteus vulgaris 3027; assay: MIC by plate method, standard strains; format: cell-based; details: Heart infusion agar pH 7.4, inoculum 10^4 cells per plate (10^6 cells/ml.), unit assumed
Description: as §1

[5] = test system: Escherchia coli NIHJ; assay: MIC by plate method, standard strains; format: cell-based; details: Heart infusion agar pH 7.4, inoculum 10^4 cells per plate (10^6 cells/ml.), unit assumed
Description: as §1

[6] = test system: β-lactamase from Escherchia coli 33; assay: Resistant activity against β-lactamase, iodometric assay; format: biochemical; details: β-lactamase hydrolysis, relative to Potassium Penicillin G = 100
Description: (§2) 3. Resistant activity against β-lactamase, Pseudomonas aeruginosa GN 238 and Escherchia coli 33:
(§3) The resistant activity of each compound against β-lactamase was measured in the manner described below.
(§4) β-Lactamase was prepared from Pseudomonas aeruginosa GN 238 and Escherchia coli 33. This microorganism was cultured in 100 ml. of a medium containing 2 g. of yeast extract, 10 g. of polypeptone, 2 g. of glucose, 7 g. of disodium hydrogen phosphate, 2 g. of potassium dihydrogen phosphate, 1.2 g. of ammonium sulfate and 0.4 g. of magnesium sulfate, per liter, in a 500-ml. Erlenmeyer flask for 6 hrs. at 37°C with shaking. The resulting cells were collected by centrifugation (5,000 r.p.m. × 10 min.), washed three times with 0.1 M phosphate buffer (pH 7.0). Subsequently, the cells were subjected to sonication (20 KHz, 20 min.) and then centrifuged at 15,000 r.p.m. for 60 min. By using the supernatant of enzyme fluid, the resistance of each compound against β-lactamase was determined by the iodometric assay method. Each numeral shown in Table 3 is a relative activity value calculated by assuming as 100 the activity of the control Potassium Penicillin G.

[7] = test system: β-lactamase from Pseudomonas aeruginosa GN 238; assay: as above; format: biochemical; details: β-lactamase hydrolysis, relative to Potassium Penicillin G = 100
Description: as §2, §3, §4

[8] = Acute toxicity LD50 i.v. in mouse; details: in vivo, iv; i.v. in mouse having a weight of 19 ± 1 g.
Text: The present penicillins have generally low toxicity.

[9] = test system: Pseudomonas aeruginosa clinical isolates; assay: MIC by plate method, clinical isolates of bacteria; format: cell-based; details: for MIC Pseudomonas aeruginosa GN 82: clinical isolate GN 82, Heart infusion agar pH 7.4, unit assumed; for MIC Pseudomonas aeruginosa GN 163: clinical isolate GN 163, Heart infusion agar pH 7.4, unit assumed; for MIC Pseudomonas aeruginosa GN 221: clinical isolate GN 221, Heart infusion agar pH 7.4, unit assumed; for MIC Pseudomonas aeruginosa GN 264: clinical isolate GN 264, Heart infusion agar pH 7.4, unit assumed; for MIC Pseudomonas aeruginosa GN 376: clinical isolate GN 376, Heart infusion agar pH 7.4, unit assumed; for MIC Pseudomonas aeruginosa GN 383: clinical isolate GN 383, Heart infusion agar pH 7.4, unit assumed; for MIC Pseudomonas aeruginosa GN 1035: clinical isolate GN 1035, Heart infusion agar pH 7.4, unit assumed; for MIC Pseudomonas aeruginosa GN 1091: clinical isolate GN 1091, Heart infusion agar pH 7.4, unit assumed; for MIC Pseudomonas aeruginosa GN 2565: clinical isolate GN 2565, Heart infusion agar pH 7.4, unit assumed; for MIC Pseudomonas aeruginosa GN 2987: clinical isolate GN 2987, Heart infusion agar pH 7.4, unit assumed; for MIC Pseudomonas aeruginosa S-2: clinical isolate S-2, Heart infusion agar pH 7.4, unit assumed; for MIC Pseudomonas aeruginosa S-3: clinical isolate S-3, Heart infusion agar pH 7.4, unit assumed; for MIC Pseudomonas aeruginosa S-4: clinical isolate S-4, Heart infusion agar pH 7.4, unit assumed
Description: as §1
MIC was determined in the same manner as in the preceding paragraph (1).

| SMILES | MIC Staphylococcus aureus 209P [1] [µg/mL] | MIC Pseudomonas aeruginosa I.F.O. [2] [µg/mL] | MIC Klebsiella pneumoniae [3] [µg/mL] | MIC Proteus vulgaris 3027 [4] [µg/mL] | MIC Escherchia coli NIHJ [5] [µg/mL] | Relative activity (%) Escherchia coli 33 [6] [%] | Relative activity (%) Pseudomonas aeruginosa GN238 [7] [%] | other results |
| --- | --- | --- | --- | --- | --- | --- | --- | --- |
| CC1(C)S[C@@H]2[C@H](NC(=O)[C@H](NC(=O)NC(=O)COc3ccc(OCC(=O)NC(=O)N[C@@H](C(=O)N[C@@H]4C(=O)N5[C@@H]4SC(C)(C)[C@@H]5C(=O)O)c4ccccc4)cc3)c3ccccc3)C(=O)N2[C@H]1C(=O)O [compound 7] | < 1.57 | 25 (≈ 25.6 µM) | 25 (≈ 25.6 µM) | 12.5 (≈ 12.8 µM) | 6.25 (≈ 6.41 µM) | – | – | – |
| CC1(C)S[C@@H]2[C@H](NC(=O)[C@H](NC(=O)NC(=O)c3ccc(C(=O)NC(=O)N[C@@H](C(=O)N[C@@H]4C(=O)N5[C@@H]4SC(C)(C)[C@@H]5C(=O)O)c4ccccc4)cc3)c3ccccc3)C(=O)N2[C@H]1C(=O)O [Compound No. 1] | < 1.57 | 12.5 (≈ 13.7 µM) | 25 (≈ 27.3 µM) | 25 (≈ 27.3 µM) | 3.13 (≈ 3.42 µM) | 12 | 18 | – |
| CC1(C)S[C@@H]2[C@H](NC(=O)[C@H](NC(=O)NC(=O)CCC(=O)NC(=O)N[C@@H](C(=O)N[C@@H]3C(=O)N4[C@@H]3SC(C)(C)[C@@H]4C(=O)O)c3ccccc3)c3ccccc3)C(=O)N2[C@H]1C(=O)O [Compound No. 3, N,N'-succinyl-bis[6-(D(-)-α-ureidophenylacetamido)penicillanic acid]] | < 1.57 | 25 (≈ 28.8 µM) | 100 (≈ 115 µM) | 12.5 (≈ 14.4 µM) | 12.5 (≈ 14.4 µM) | 3 | 5 | LD50 [8]: > 3000 mg/kg; MIC Pseudomonas aeruginosa GN 82 [9]: 12.5 µg/mL (≈ 14.4 µM); MIC Pseudomonas aeruginosa GN 163 [9]: 25 µg/mL (≈ 28.8 µM); MIC Pseudomonas aeruginosa GN 221 [9]: 25 µg/mL (≈ 28.8 µM); MIC Pseudomonas aeruginosa GN 264 [9]: 50 µg/mL (≈ 57.7 µM); MIC Pseudomonas aeruginosa GN 376 [9]: 25 µg/mL (≈ 28.8 µM); MIC Pseudomonas aeruginosa GN 383 [9]: 50 µg/mL (≈ 57.7 µM); MIC Pseudomonas aeruginosa GN 1035 [9]: 50 µg/mL (≈ 57.7 µM); MIC Pseudomonas aeruginosa GN 1091 [9]: 25 µg/mL (≈ 28.8 µM); MIC Pseudomonas aeruginosa GN 2565 [9]: 25 µg/mL (≈ 28.8 µM); MIC Pseudomonas aeruginosa GN 2987 [9]: 25 µg/mL (≈ 28.8 µM); MIC Pseudomonas aeruginosa S-2 [9]: 25 µg/mL (≈ 28.8 µM); MIC Pseudomonas aeruginosa S-3 [9]: 25 µg/mL (≈ 28.8 µM); MIC Pseudomonas aeruginosa S-4 [9]: 25 µg/mL (≈ 28.8 µM) |
| CC1(C)S[C@@H]2[C@H](NC(=O)[C@H](NC(=O)NC(=O)c3ccc4cc(C(=O)NC(=O)N[C@@H](C(=O)N[C@@H]5C(=O)N6[C@@H]5SC(C)(C)[C@@H]6C(=O)O)c5ccccc5)ccc4c3)c3ccccc3)C(=O)N2[C@H]1C(=O)O [compound 2] | < 1.57 | 25 (≈ 25.9 µM) | 3.13 (≈ 3.24 µM) | 3.15 (≈ 3.26 µM) | < 1.57 | – | – | – |
| CC1(C)S[C@@H]2[C@H](NC(=O)[C@H](NC(=O)NC(=O)c3ccc(CCc4ccc(C(=O)NC(=O)N[C@@H](C(=O)N[C@@H]5C(=O)N6[C@@H]5SC(C)(C)[C@@H]6C(=O)O)c5ccccc5)cc4)cc3)c3ccccc3)C(=O)N2[C@H]1C(=O)O [compound 8] | < 1.57 | 50 (≈ 49.1 µM) | 6.25 (≈ 6.13 µM) | 6.25 (≈ 6.13 µM) | < 1.57 | – | – | – |
| CC1(C)S[C@@H]2[C@H](NC(=O)[C@H](N)c3ccccc3)C(=O)N2[C@H]1C(=O)O [Sodium Ampicillin, reference compound] | < 1.57 | > 200 | 50 | > 200 | < 1.57 | – | – | MIC Pseudomonas aeruginosa GN 82 [9]: > 200 µg/mL; MIC Pseudomonas aeruginosa GN 163 [9]: > 200 µg/mL; MIC Pseudomonas aeruginosa GN 221 [9]: > 200 µg/mL; MIC Pseudomonas aeruginosa GN 264 [9]: > 200 µg/mL; MIC Pseudomonas aeruginosa GN 376 [9]: > 200 µg/mL; MIC Pseudomonas aeruginosa GN 383 [9]: > 200 µg/mL; MIC Pseudomonas aeruginosa GN 1035 [9]: > 200 µg/mL; MIC Pseudomonas aeruginosa GN 1091 [9]: > 200 µg/mL; MIC Pseudomonas aeruginosa GN 2565 [9]: > 200 µg/mL; MIC Pseudomonas aeruginosa GN 2987 [9]: > 200 µg/mL; MIC Pseudomonas aeruginosa S-2 [9]: > 200 µg/mL; MIC Pseudomonas aeruginosa S-3 [9]: > 200 µg/mL; MIC Pseudomonas aeruginosa S-4 [9]: > 200 µg/mL |
| CC1(C)S[C@@H]2[C@H](NC(=O)[C@H](NC(=O)NC(=O)CCCCCCCCC(=O)NC(=O)N[C@@H](C(=O)N[C@@H]3C(=O)N4[C@@H]3SC(C)(C)[C@@H]4C(=O)O)c3ccccc3)c3ccccc3)C(=O)N2[C@H]1C(=O)O [Compound No. 4, N,N'-sebacoyl-bis[6-(D(-)-α-ureidophenylacetamido)penicillanic acid]] | < 1.57 | 50 (≈ 52.6 µM) | 25 (≈ 26.3 µM) | 25 (≈ 26.3 µM) | 3.13 (≈ 3.29 µM) | 8 | 12 | – |
| CC1(C)S[C@@H]2[C@H](NC(=O)[C@H](NC(=O)NC(=O)CCCCCCCCCCCC(=O)NC(=O)N[C@@H](C(=O)N[C@@H]3C(=O)N4[C@@H]3SC(C)(C)[C@@H]4C(=O)O)c3ccccc3)c3ccccc3)C(=O)N2[C@H]1C(=O)O [Compound No. 6, N,n'-tridecanedioyl-bis[6-(D(-)-α-ureidophenylacetamido)penicillanic acid]] | < 1.57 | 25 (≈ 25.2 µM) | 12.5 (≈ 12.6 µM) | 25 (≈ 25.2 µM) | 3.13 (≈ 3.15 µM) | < 1 | < 1 | – |
| CC1(C)S[C@@H]2[C@H](NC(=O)Cc3ccccc3)C(=O)N2[C@H]1C(=O)O [Potassium Penicillin G, reference compound] | – | – | – | – | – | 100 | 100 | – |
| CC1(C)S[C@@H]2[C@H](NC(=O)[C@H](NC(=O)NC(=O)c3ccc(C(=O)c4ccc(C(=O)NC(=O)N[C@@H](C(=O)N[C@@H]5C(=O)N6[C@@H]5SC(C)(C)[C@@H]6C(=O)O)c5ccccc5)cc4)cc3)c3ccccc3)C(=O)N2[C@H]1C(=O)O [compound 9] | < 1.57 | 25 (≈ 24.5 µM) | 12.5 (≈ 12.3 µM) | 12.5 (≈ 12.3 µM) | 3.13 (≈ 3.07 µM) | – | – | – |
| CC1(C)S[C@@H]2[C@H](NC(=O)[C@H](NC(=O)NC(=O)CCCCCCCCCCC(=O)NC(=O)N[C@@H](C(=O)N[C@@H]3C(=O)N4[C@@H]3SC(C)(C)[C@@H]4C(=O)O)c3ccccc3)c3ccccc3)C(=O)N2[C@H]1C(=O)O [compound 5, N,n'-dodecanedioyl-bis[6-(D(-)-α-ureidophenylacetamido)penicillanic acid]] | < 1.57 | 50 (≈ 51.1 µM) | 12.5 (≈ 12.8 µM) | 100 (≈ 102 µM) | 3.13 (≈ 3.2 µM) | – | – | – |
